Values after ≈ are worked out from the molar mass of the structure shown. Read-outs that look alike come from different tables or passages of the source.
How the values were obtained:
[1] = Microsomal stability (mouse); format: in vitro ADME; conditions: microsomes, read-out: Microsomal T1/2 (mouse)
[2] = system: NMDA; assay: Off-target profiling panel; format: binding; conditions: 10 μM
[3] = target: T1, hERG (Homo sapiens, UniProt Q12809); assay: hERG patch-clamp; format: cell-based
[4] = system: MDCK-MDR2; assay: MDCK-MDR2 bidirectional permeability assay; format: in vitro ADME; conditions: A to B
[5] = system: MDR2; assay: MDCK-MDR2 bidirectional permeability assay; format: in vitro ADME; conditions: dog; efflux ratio; read-out: MDCK-MDR2 (B to A/A to B)
[6] = target: CYP3A4 (Homo sapiens, UniProt P08684); assay: CYP inhibition; format: in vitro ADME
[7] = target: T2, human ALDH1A1 (Homo sapiens, UniProt P00352); assay: Recombinant enzyme activity assay; format: biochemical; conditions: dose titration, up to 10 μM
T2 construct: made in house; host or cells: BL21-DE3 E. coli
T2 sequence (P00352 1-501): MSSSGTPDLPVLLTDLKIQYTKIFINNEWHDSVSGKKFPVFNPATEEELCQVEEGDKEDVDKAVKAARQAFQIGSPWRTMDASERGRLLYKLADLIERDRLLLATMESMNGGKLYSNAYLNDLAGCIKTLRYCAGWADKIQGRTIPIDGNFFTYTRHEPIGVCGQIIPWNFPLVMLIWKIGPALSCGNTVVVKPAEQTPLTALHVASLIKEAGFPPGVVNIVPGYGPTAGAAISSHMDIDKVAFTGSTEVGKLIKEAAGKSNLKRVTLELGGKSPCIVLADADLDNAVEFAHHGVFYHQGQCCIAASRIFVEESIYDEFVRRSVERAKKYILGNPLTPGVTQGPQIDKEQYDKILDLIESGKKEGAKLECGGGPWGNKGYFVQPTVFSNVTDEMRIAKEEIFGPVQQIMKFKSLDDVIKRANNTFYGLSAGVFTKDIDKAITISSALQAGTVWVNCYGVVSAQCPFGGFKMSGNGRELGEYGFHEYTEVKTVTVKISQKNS
Protocol: Purified enzyme was used for biochemical and biophysical assays.
For the recombinant enzyme activity assay, enzyme aliquots were thawed on ice for 4 h prior to analysis and the protocol was performed as described[8] with the following key changes: 1) Final concentrations of NAD+ (Gold Bio) were 200 μM and BSA were 1 mg/mL 2) Propanaldehyde was used as the substrate for ALDH1A1 and ALDH2. 3) Reaction velocity was monitored through diaphorase (clostridium) coupled reduction of resazurin (100 μM) monitored with ex/em of 560nm/590 nm in order to regenerate NAD+ and thus maintain constant cofactor concentration as well as to avoid high absorbance values of many screening compounds at the NADH absorbance. Assays were conducted at room temperature (controlled to 21-23C) and all buffers were maintained at pH 7.5. For all reactions, pre-incubation time was approximately 2 min while the reaction monitoring was performed over 10 min.

[8] = Hepatocyte stability (human); format: in vitro ADME; conditions: hepatocytes, read-out: Hepatocyte T1/2 (human)
[9] = target: CYP1A2 (Homo sapiens, UniProt P05177); assay: CYP inhibition; format: in vitro ADME
[10] = Microsomal stability (human); format: in vitro ADME; conditions: microsomes, read-out: Microsomal T1/2 (human)
[11] = target: T1, hERG; assay: hERG dofetilide binding assay
[12] = target: CYP2D6 (Homo sapiens, UniProt P10635); assay: CYP inhibition; format: in vitro ADME
[13] = target: T3, ALDH1A3 (Homo sapiens, UniProt P47895); assay: Recombinant enzyme activity assay; format: biochemical; set-up: made in house; host or cells: BL21-DE3 E. coli
T3 sequence (P47895 1-512): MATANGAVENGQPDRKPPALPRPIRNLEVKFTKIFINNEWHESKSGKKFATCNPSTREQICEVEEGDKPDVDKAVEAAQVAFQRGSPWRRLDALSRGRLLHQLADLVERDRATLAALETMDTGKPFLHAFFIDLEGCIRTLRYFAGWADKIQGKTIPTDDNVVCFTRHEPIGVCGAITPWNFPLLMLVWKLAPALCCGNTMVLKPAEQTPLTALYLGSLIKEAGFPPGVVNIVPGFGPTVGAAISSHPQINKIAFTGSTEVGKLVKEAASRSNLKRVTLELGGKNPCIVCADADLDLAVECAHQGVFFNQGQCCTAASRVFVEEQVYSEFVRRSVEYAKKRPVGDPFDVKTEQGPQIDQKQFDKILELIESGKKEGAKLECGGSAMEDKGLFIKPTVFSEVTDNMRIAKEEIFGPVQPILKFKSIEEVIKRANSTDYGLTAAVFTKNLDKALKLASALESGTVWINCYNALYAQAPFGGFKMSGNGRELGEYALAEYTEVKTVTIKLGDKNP

[14] = target: CYP2C9 (Homo sapiens, UniProt P11712); assay: CYP inhibition; format: in vitro ADME
[15] = Kinetic solubility; format: physicochemical; conditions: kinetic from dmso stock
Source text: Table 1 Physiochemical, biochemical, and metabolic profile of lead compounds MBE1 and MBE1.5 | column: MBE1; MBE1.5

[16] = system: endogenous ALDH1A3 in MDA-MB-468 cells; assay: Quantification of atRA in cells; format: cell-based, human; conditions: 24 h, dose titration
[17] = system: human ALDH1A3 in MCF7-ALDH1A3 cells; assay: STRA6 qPCR retinoid inhibition assay in MCF7-ALDH1A3 cells; conditions: for IC50: 24 h, read-out: cellular IC50 for ALDH1A3, STRA6 mRNA; for EC50: read-out: EC50 cellular, human ALDH1A3
[18] = Cytotoxicity, 48 h tetrazolium proliferation assay
[19] = target: CYP2C19 (Homo sapiens, UniProt P33261); assay: CYP inhibition; format: in vitro ADME
[20] = target: T3, ALDH1A3; assay: Microscale thermophoresis (MST) binding; set-up: made in house; host or cells: BL21-DE3 E. coli; conditions: biophysical assay (Table 1)
[21] = IV/PO pharmacokinetics in fasted male CD-1 mice
[22] = pH 4.5, aqueous buffer, read-out: Kinetic solubility pH 4.5
[23] = pH 7.6, aqueous buffer, read-out: Kinetic solubility pH 7.6
[24] = 1 mg/kg IV and 10 mg/kg PO, fasted male CD1 mice

T1 sequence (Q12809 whole entry): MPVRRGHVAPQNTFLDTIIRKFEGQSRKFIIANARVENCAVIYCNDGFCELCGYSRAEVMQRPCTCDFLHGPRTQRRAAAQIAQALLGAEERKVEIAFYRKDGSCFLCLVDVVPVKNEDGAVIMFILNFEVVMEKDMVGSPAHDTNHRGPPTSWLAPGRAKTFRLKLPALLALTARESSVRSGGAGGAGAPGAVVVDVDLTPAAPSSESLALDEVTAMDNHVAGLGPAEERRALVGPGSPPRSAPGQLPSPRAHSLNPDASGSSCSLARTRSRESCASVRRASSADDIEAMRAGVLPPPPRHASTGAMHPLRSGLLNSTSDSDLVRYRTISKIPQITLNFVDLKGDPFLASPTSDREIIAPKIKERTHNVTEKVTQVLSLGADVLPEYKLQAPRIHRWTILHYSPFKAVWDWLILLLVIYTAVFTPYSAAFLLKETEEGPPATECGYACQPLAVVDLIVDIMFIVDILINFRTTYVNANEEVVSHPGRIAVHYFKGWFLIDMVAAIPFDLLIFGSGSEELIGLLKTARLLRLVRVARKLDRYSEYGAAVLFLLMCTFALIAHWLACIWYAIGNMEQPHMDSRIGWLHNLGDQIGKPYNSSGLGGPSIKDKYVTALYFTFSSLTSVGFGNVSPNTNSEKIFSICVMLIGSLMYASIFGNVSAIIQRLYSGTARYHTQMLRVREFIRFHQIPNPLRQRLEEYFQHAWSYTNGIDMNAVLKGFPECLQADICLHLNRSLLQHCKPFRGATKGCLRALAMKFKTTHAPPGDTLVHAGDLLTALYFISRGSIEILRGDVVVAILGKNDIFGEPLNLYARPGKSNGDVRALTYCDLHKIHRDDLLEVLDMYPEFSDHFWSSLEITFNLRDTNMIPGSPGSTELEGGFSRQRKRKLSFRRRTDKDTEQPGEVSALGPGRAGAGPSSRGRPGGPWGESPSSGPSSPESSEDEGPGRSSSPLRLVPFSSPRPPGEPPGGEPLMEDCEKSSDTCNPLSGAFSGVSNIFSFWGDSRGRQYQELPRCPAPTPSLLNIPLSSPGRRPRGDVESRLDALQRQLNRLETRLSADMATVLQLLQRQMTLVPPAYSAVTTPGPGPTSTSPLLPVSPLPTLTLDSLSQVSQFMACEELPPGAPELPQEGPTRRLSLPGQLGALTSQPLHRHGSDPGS
CYP3A4, sequence (P08684 whole entry): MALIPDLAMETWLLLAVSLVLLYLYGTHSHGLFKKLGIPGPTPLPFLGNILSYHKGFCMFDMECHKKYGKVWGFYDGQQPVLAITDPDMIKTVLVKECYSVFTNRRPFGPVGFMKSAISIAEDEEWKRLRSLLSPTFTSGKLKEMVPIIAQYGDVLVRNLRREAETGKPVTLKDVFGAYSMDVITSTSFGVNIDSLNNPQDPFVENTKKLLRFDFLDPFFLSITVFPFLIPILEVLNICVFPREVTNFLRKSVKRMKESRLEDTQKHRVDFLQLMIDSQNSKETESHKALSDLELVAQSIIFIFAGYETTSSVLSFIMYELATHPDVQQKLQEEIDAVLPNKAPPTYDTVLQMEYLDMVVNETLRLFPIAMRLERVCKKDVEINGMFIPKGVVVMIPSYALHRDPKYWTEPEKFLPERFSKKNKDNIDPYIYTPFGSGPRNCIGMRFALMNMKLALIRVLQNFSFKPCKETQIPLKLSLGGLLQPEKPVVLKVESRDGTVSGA
CYP1A2, sequence (P05177 whole entry): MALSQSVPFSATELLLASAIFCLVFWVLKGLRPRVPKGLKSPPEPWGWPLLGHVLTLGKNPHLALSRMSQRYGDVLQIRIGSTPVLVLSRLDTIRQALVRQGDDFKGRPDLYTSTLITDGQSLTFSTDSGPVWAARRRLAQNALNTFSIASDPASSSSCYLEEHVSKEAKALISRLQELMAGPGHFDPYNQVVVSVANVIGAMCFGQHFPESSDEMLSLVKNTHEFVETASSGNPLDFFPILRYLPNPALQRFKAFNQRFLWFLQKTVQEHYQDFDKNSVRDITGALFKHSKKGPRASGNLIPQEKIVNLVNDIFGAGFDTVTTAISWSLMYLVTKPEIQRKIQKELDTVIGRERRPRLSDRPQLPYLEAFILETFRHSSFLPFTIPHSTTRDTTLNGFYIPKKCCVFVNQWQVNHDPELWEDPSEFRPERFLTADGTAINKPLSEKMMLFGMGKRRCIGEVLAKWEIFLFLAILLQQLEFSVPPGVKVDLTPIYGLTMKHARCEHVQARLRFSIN
CYP2C19, sequence (P33261 whole entry): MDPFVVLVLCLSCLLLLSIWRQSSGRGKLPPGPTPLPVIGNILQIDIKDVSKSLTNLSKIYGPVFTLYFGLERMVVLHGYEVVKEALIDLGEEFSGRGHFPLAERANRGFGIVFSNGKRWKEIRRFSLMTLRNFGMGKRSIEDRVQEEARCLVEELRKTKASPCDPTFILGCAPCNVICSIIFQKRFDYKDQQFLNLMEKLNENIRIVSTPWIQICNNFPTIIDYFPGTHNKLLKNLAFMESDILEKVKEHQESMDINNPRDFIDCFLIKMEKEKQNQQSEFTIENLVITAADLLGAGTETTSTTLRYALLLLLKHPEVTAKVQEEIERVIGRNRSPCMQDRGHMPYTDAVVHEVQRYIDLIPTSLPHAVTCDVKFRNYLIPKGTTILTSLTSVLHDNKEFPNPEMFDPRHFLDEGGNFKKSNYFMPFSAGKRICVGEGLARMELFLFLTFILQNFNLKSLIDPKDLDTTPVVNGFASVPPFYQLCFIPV
CYP2C9, sequence (P11712 whole entry): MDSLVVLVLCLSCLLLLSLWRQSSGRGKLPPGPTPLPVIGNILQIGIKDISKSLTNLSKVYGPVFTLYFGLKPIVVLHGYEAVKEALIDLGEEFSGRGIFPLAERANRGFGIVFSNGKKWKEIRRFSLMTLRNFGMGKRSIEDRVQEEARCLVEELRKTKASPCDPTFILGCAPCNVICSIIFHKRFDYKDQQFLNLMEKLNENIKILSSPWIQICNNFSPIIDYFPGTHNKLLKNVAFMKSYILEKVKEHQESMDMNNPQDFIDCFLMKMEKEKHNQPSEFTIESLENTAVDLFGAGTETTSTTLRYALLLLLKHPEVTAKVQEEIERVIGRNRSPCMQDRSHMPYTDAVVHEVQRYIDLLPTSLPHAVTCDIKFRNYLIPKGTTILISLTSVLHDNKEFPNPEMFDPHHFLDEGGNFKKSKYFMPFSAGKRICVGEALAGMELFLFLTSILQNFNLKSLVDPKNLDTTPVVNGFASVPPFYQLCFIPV
CYP2D6, sequence (P10635 whole entry): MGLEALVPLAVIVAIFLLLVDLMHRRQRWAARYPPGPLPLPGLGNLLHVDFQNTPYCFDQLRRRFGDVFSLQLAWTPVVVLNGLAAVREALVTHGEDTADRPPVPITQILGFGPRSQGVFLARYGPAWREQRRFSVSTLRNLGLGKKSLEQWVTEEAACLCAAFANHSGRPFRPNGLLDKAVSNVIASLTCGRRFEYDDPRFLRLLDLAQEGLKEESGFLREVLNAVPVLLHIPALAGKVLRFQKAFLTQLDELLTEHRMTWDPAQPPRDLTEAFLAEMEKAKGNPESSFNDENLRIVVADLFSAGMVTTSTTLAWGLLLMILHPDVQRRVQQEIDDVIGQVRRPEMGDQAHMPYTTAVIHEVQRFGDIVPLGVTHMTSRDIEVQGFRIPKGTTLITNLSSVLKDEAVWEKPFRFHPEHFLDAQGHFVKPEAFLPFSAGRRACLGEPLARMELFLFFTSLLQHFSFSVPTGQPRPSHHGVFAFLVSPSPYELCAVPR

Structure (SMILES) | half-life [1] | IC50 [3] | MDCK-MDR2 permeability A to B [4] | efflux ratio [5] | inhibition at 10 µM [6] | inhibitory activity against ALDH1A1 (in words) [7] | half-life [8] | inhibition at 10 µM [9] | half-life [10] | IC50 [11] | inhibition at 10 µM [12] | inhibition at 10 µM [14] | solubility kinetic [15, 22] | solubility kinetic [15, 23] | reduction of atRA formation (in words) [16] | IC50 [17] | EC50 [17] | Cytotoxicity [18] | inhibition at 10 µM [19] | Kd [20] | also measured
CCc1cnccc1C(=O)Nc1cc2c(cc1F)NC(=O)CC2 [MBE1, 3-ethyl-N-(7-fluoro-2-oxo-3,4-dihydro-1H-quinolin-6-yl)pyridine-4-carboxamide] | 0.727 h | 26600 nM | high | 2.42 | 42% | no inhibition | > 3.61 h | 8.8% | > 2.42 h | > 30000 nM | 61.3% | 13.9% | > 200 µM | > 200 µM | potently reduced atRA formation | 3.67 nM | 3.67 nM | >100 µM | 15.8% | 71.7 nM | Inhibition by MBE1 at 10 μM (%) [2]: −13.59%; IC50 ([13]; dose titration, substrate competition assay, recombinant human ALDH1A3, 4-parameter equation, read-out: huALDH1A3 IC50): 148 nM; confirmatory screening result ([13]; hits of the 494-compound screen): true positives; Oral bioavailability ([21]; 1 mg/kg i.v. and 10 mg/kg PO, fasted male CD-1 mice): 88.3%; half-life ([21]; male, CD-1, mouse, plasma, po, 10 mg/kg): 1.37 h
CCc1ccccc1C(=O)Nc1cc2c(cc1F)NC(=O)CC2 [MBE1.5, 2-ethyl-N-(7-fluoro-2-oxo-3,4-dihydro-1H-quinolin-6-yl)benzamide] | 1.87 h | > 30000 nM | high | 0.6 | 6.3% | no inhibition | > 3.61 h | 11.6% | > 2.42 h | > 30000 nM | 0% | 5.6% | 34.2 µM (≈ 10.7 µg/mL) | 33.3 µM (≈ 10.4 µg/mL) | potently reduced atRA formation | < 1 nM | 0.53 nM | >100 µM | 0% | 42.1 nM | IC50 ([13]; recombinant activity assay (Table 1), read-out: IC50 molecular, human ALDH1A3): 83 nM; competition mode ([13]; varying substrate and cofactor concentrations): noncompetitive inhibitor; bioavailability compared with MBE1 (in words) [21, 24]: reduced bioavailability; half-life compared with MBE1 (in words) [21, 24]: improved half-life

— article PMC12595434, “Development of retinoid nuclear receptor pathway antagonists through targeting aldehyde dehydrogenase 1A3” (iScience, 2025)
